Assay results: US20110306671A1, “AMIDE DERIVATIVES OF ETHACRYNIC ACID” (The Regents of the The University of California, priority 2008, published 2011)

Experiments:
[1] = test system: Primary CLL cells; assay: Cell apoptosis assay (DiOC6/PI flow cytometry) in primary CLL cells; format: cell-based, human; details: 3 μM EA with NAC 1 mM or BHA 100 μM, 48 hours
[2] = test system: Wnt/β-catenin signaling; assay: TOPflash reporter assay in transfected HEK293 cells; format: cell-based, human; details: for effect on EA-induced inhibition of Wnt/β-catenin signaling: TOPflash + Dvl, 50 μM EA with 1 mM NAC, 100 μM PDTC or 100 μM BHA, 24 hours
[3] = test system: Wnt signaling; assay: CellSensor LEF/TCF-bla SW480 cell-based assay (Wnt signaling inhibition); design: species or system human; details: for IC50: LEF/TCF-bla SW480 cells, 20 hours
Description: To determine the specificity of compounds on Wnt/[…]-catenin pathway inhibition, CellSensor LEF/TCF-bla SW480 cell-based assay (Invitrogen, Carlsbad, Calif.) was used according to the supplier's instructions, but modified for a 96 well format. Cells were plated at 25,000 cells/well in assay medium in 96-well black plates with clear bottom (Corning) the day prior to compound treatment.

[4] = test system: Primary CLL cells; assay: Cell viability assay (MTT) with primary CLL cells; details: for EC50: read-out: CLL Inhibition EC50, CLL survival, MTT, 48 hours
[5] = test system: lymphoma and myeloma cells; details: Schmidt et al., 2009; cited from earlier work
[6] = test system: Normal PBMC; assay: Cell viability assay (MTT) with normal peripheral blood mononuclear cells; format: cell-based, human; details: data not shown

Structure (SMILES) | IC50 [3] [µM] | EC50 [4] [µM] | further results
CC(=O)N[C@@H](CS)C(=O)O [NAC, N-acetyl-L-cysteine] | – | – | protection of CLL cells from EA-induced apoptosis [1]: significantly protected; effect on EA-induced inhibition of Wnt/β-catenin signaling [2]: significantly prevented
C=C(CC)C(=O)c1ccc(OCC(=O)Nc2ccc(C(=O)O)cn2)c(Cl)c1Cl [Compound 21] | > 50 | 14.9 | –
C=C(CC)C(=O)c1ccc(OCC(=O)Nc2ccc(C(=O)O)cc2)c(Cl)c1Cl [Compound 6] | 5.81 | 5 | –
C=C(CC)C(=O)c1ccc(OCC(=O)Nc2ccc(C(=O)OC)cc2)c(Cl)c1Cl [Compound 23] | 11.4 | 4.1 | –
C=C(CC)C(=O)c1ccc(OCC(=O)NCCCN2CCCC2=O)c(Cl)c1Cl [Compound 33] | > 50 | 13.8 | –
C=C(CC)C(=O)c1ccc(OCC(=O)Nc2cc(Cl)ccc2C(=O)O)c(Cl)c1Cl [Compound 10] | 9.62 | 13.8 | –
CCCCS(=N)(=O)CCC(N)C(=O)O (stereo not drawn) [BSO, buthionine sulfoximine] | – | – | effect on Wnt/β-catenin signaling ([2]; cell-based system, data not shown): did not inhibit
CCC(C)C(=O)c1ccc(OCC(=O)O)c(Cl)c1Cl (stereo not drawn) [Compound 42] | – | > 25 | inhibition of Wnt signaling (in words) [3]: completely abrogated; IC50 ([3]; Homo sapiens): > 50 µM; decrease of CLL survival (in words) [4]: completely abrogated
C=C(CC)C(=O)c1ccc(OCC(=O)Nc2ccc3c(c2)C(=O)c2ccccc2C3=O)c(Cl)c1Cl [Compound 32] | 2.97 | 2.1 | –
C=C(CC)C(=O)c1ccc(OCC(=O)NC2CCN(CC(=O)OC)CC2)c(Cl)c1Cl [Compound 18] | > 50 | 10.6 | –
C=C(CC)C(=O)c1ccc(OCC(=O)Nc2ccc(Cl)c(C(=O)O)c2)c(Cl)c1Cl [Compound 9] | > 50 | 15.9 | –
C=C(CC)C(=O)c1ccc(OCC(=O)NO)c(Cl)c1Cl [Compound 5] | 9.89 | 4.5 | –
C=C(CC)C(=O)c1ccc(OCC(=O)Nc2nc(C(=NOC)C(=O)O)cs2)c(Cl)c1Cl [Compound 30] | > 50 | > 25 | –
Cc1cc(C2CCCCC2)n(O)c(=O)c1 [cic, ciclopiroxolamine] | – | – | induction of apoptosis [5]: significant induction of apoptosis
C=C(CC)C(=O)c1ccc(OCC(=O)Nc2ccc3[nH]cnc3c2)c(Cl)c1Cl [Compound 29] | 3.62 | 3.2 | inhibition of Wnt signaling (in words) [3]: low micromolar concentrations; decrease of CLL survival (in words) [4]: low micromolar concentrations
C=C(CC)C(=O)c1ccc(OCC(=O)Nc2ccc(C(N)=O)cc2)c(Cl)c1Cl [Compound 4] | 4.76 | 3.7 | –
C=C(CC)C(=O)c1ccc(OC)c(Cl)c1Cl [Compound 43] | – | – | toxicity to peripheral blood mononuclear cells (PBMC) [6]: highly toxic
COc1ccc(O)c(C(C)(C)C)c1 [BHA, 3-t-butyl-4-hydroxyanisole] | – | – | protection of CLL cells from EA-induced apoptosis [1]: had no effect; effect on EA-induced inhibition of Wnt/β-catenin signaling [2]: did not reverse
C=C(CC)C(=O)c1ccc(OCC(=O)NC(CS)C(=O)OCC)c(Cl)c1Cl (stereo not drawn) [Compound 7] | > 50 | 4.8 | –
C=C(CC)C(=O)c1ccc(OCC(=O)Nc2ccc(Cc3ccc(N4C(=O)C5C6C=CC(C6)C5C4=O)cc3)cc2)c(Cl)c1Cl (stereo not drawn) [Compound 27] | 2.93 | 1.8 | –
C=C(CC)C(=O)c1ccc(OCC(=O)Nc2ccc(C#N)cc2)c(Cl)c1Cl [Compound 8] | 6.84 | 7.8 | –
C=C(CC)C(=O)c1ccc(OCC(=O)Nc2cccc(C(=O)O)c2)c(Cl)c1Cl [Compound 19] | 5.85 | 20.6 | –
C=C(CC)C(=O)c1ccc(OCC(=O)NCCc2c[nH]c3ccccc23)c(Cl)c1Cl [Compound 20] | 10.7 | 5.9 | –
C=C(CC)C(=O)c1ccc(OCC(=O)Nc2ccc(C(=O)O)c(O)c2)c(Cl)c1Cl [Compound 22] | > 50 | > 25 | –
C=C(CC)C(=O)c1ccc(OCC(=O)Nc2cc(OC)c(OC)cc2C(=O)O)c(Cl)c1Cl [Compound 11] | > 50 | 21.9 | –
C=C(CC)C(=O)c1ccc(OCC(=O)Nc2ccc(C(C)=O)cc2)c(Cl)c1Cl [Compound 28] | 5.06 | 3.9 | –
C=C(CC)C(=O)c1ccc(OCC(=O)Nc2nc3ccccc3s2)c(Cl)c1Cl [Compound 13] | 4.86 | 1.5 | –
C=C(CC)C(=O)c1ccc(OCC(=O)Nc2ccc(C=CC(=O)OCC)cc2)c(Cl)c1Cl [Compound 38] | 3.79 | 1.7 | –
C=C(CC)C(=O)c1ccc(OCC(=O)Nc2ccc3c(c2)C(=O)NC3=O)c(Cl)c1Cl [Compound 12] | 4.88 | 2.5 | –
C=C(CC)C(=O)c1ccc(OCC(=O)Nc2ccc(C(=O)NC(CCC(=O)OCC)C(=O)OCC)cc2)c(Cl)c1Cl (stereo not drawn) [Compound 31] | 2.61 | 2.1 | inhibition of Wnt signaling (in words) [3]: low micromolar concentrations; decrease of CLL survival (in words) [4]: low micromolar concentrations
